Test results from publication PMC9814781, “Structure-based design of a dual-warhead covalent inhibitor of FGFR4” (Communications Chemistry, 2022).

Columns and labels:
Hep3B = Hep3B viability assay; format: cell-based; conditions: Homo sapiens, FGF19-overexpressing HCC cell line, 72 h, CCK-8
Description: Hep3B (ThermoFisher Scientific, 11965, America) and Huh7 (ThermoFisher Scientific, 11095, America) cells were seeded into 96-well plates at 4000 cells/well and 2000 cells/well, respectively. […] Cell viabilities were measured by a CCK-8 kit (Vazyme, China). The IC50 values were calculated using GraphPad Prism software.

DYRK4 = biological target: T1, DYRK4 (Homo sapiens, UniProt Q9NR20); assay: Kinase selectivity profiling; format: biochemical; conditions: DYRK4, 1000 nM
T1 construct: purchased ICE Bioscience

IKK-beta = IKK-beta (Homo sapiens, UniProt O14920); assay: Kinase selectivity profiling
DCAMKL2 = DCAMKL2 (Homo sapiens, UniProt Q8N568); assay: Kinase selectivity profiling
SYK = SYK (Homo sapiens, UniProt P43405); assay: Kinase selectivity profiling
FGFR3 = FGFR3 (Homo sapiens, UniProt P22607); assay: Kinase selectivity profiling
BMX = BMX (Homo sapiens, UniProt P51813); assay: Kinase selectivity profiling
SRM = SRM (Homo sapiens, UniProt Q9H3Y6); assay: Kinase selectivity profiling
ROCK1 = ROCK1 (Homo sapiens, UniProt Q13464); assay: Kinase selectivity profiling
ACK = ACK (Homo sapiens, UniProt Q07912); assay: Kinase selectivity profiling
SGK = SGK (Homo sapiens, UniProt O00141); assay: Kinase selectivity profiling
EPHA7 = EPHA7 (Homo sapiens, UniProt Q15375); assay: Kinase selectivity profiling
HGK = HGK (Homo sapiens, UniProt O95819); assay: Kinase selectivity profiling
p38β = p38β (Homo sapiens, UniProt Q15759); assay: Kinase selectivity profiling
PYK2 = PYK2 (Homo sapiens, UniProt Q14289); assay: Kinase selectivity profiling
PAK3 = PAK3 (Homo sapiens, UniProt O75914); assay: Kinase selectivity profiling
CLK3 = CLK3 (Homo sapiens, UniProt P49761); assay: Kinase selectivity profiling
CDK5/p35NCK = CDK5/p35NCK (Homo sapiens, UniProt Q00535); assay: Kinase selectivity profiling
MAP3K3 = MAP3K3 (Homo sapiens, UniProt Q99759); assay: Kinase selectivity profiling
LCK = LCK (Homo sapiens, UniProt P06239); assay: Kinase selectivity profiling
IRR = IRR (Homo sapiens, UniProt P14616); assay: Kinase selectivity profiling
CDK3/CycE1 = CDK3/CycE1 (Homo sapiens, UniProt Q00526); assay: Kinase selectivity profiling
YES = YES (Homo sapiens, UniProt P07947); assay: Kinase selectivity profiling
MST2 = MST2 (Homo sapiens, UniProt Q13188); assay: Kinase selectivity profiling
TGFβR2 = TGFβR2 (Homo sapiens, UniProt P37173); assay: Kinase selectivity profiling
PIK3CD/PIK3R1 = PIK3CD/PIK3R1 (Homo sapiens, UniProt O00329); assay: Kinase selectivity profiling
Chain of PIK3CD/PIK3R1 (O00329 whole entry): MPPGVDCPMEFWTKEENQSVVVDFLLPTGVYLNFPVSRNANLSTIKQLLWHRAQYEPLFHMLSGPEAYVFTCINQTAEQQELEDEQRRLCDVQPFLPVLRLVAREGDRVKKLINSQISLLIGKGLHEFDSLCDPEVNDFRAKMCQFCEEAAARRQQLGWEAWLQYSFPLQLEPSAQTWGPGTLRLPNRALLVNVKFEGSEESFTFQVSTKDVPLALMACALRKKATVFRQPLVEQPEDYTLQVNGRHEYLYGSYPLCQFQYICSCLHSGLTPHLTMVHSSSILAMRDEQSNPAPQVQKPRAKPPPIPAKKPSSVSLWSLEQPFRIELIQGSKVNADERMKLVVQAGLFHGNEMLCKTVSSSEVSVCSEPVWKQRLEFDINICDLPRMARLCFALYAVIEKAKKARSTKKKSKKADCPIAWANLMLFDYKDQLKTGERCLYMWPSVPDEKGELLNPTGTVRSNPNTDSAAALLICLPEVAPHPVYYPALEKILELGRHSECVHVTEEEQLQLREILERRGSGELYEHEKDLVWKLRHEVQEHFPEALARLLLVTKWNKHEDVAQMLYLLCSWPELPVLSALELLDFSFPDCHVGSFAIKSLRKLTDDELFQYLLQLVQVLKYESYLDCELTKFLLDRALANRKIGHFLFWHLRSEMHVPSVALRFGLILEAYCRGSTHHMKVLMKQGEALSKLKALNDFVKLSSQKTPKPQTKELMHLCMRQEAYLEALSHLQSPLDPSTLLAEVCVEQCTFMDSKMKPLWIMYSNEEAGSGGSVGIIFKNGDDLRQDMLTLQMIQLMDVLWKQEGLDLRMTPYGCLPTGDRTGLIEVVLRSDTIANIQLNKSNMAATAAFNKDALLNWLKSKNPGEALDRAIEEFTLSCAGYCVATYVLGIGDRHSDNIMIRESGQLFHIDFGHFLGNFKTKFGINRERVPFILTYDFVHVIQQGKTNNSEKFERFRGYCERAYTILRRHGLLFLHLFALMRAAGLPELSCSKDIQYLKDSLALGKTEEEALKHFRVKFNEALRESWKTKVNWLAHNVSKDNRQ
Chain of PIK3CD/PIK3R1 (P27986 whole entry partner): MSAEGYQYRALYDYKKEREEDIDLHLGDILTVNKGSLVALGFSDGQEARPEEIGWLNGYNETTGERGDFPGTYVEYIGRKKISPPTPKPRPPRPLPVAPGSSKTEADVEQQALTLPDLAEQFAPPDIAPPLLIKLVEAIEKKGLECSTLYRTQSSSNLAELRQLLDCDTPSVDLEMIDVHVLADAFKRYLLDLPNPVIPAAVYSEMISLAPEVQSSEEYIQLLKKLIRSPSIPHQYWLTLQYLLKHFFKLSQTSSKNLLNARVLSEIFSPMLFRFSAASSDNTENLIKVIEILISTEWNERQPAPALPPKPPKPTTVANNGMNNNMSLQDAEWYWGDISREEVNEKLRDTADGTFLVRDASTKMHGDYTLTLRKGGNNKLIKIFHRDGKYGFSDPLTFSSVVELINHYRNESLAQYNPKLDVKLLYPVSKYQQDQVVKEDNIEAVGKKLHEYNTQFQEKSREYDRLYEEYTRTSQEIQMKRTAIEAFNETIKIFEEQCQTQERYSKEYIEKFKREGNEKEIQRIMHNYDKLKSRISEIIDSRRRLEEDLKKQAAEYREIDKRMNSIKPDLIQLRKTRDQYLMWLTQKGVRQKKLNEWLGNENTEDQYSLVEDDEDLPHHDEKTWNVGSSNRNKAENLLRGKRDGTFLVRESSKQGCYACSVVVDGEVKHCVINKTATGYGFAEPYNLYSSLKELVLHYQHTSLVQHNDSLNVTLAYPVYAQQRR

Chain of CDK3/CycE1 (Q00526 whole entry): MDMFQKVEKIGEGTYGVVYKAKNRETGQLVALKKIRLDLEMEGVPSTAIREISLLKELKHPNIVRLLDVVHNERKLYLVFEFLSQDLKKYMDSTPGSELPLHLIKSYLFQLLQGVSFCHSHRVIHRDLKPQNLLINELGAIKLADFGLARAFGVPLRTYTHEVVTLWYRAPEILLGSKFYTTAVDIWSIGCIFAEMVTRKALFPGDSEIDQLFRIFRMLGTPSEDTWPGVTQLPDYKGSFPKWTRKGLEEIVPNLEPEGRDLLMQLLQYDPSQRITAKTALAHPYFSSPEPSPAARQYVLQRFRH
Chain of CDK3/CycE1 (P24864 whole entry partner): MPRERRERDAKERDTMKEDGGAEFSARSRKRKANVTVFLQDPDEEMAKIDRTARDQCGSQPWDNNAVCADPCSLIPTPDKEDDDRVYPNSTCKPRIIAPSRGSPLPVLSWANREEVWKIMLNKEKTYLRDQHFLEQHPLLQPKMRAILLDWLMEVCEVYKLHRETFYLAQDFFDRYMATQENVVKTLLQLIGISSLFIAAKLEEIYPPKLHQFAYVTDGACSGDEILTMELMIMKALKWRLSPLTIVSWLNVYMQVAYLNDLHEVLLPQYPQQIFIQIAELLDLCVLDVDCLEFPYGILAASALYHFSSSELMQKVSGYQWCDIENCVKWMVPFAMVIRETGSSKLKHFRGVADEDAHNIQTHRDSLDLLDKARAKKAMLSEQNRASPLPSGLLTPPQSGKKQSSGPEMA
Chain of PAK3 (O75914 whole entry): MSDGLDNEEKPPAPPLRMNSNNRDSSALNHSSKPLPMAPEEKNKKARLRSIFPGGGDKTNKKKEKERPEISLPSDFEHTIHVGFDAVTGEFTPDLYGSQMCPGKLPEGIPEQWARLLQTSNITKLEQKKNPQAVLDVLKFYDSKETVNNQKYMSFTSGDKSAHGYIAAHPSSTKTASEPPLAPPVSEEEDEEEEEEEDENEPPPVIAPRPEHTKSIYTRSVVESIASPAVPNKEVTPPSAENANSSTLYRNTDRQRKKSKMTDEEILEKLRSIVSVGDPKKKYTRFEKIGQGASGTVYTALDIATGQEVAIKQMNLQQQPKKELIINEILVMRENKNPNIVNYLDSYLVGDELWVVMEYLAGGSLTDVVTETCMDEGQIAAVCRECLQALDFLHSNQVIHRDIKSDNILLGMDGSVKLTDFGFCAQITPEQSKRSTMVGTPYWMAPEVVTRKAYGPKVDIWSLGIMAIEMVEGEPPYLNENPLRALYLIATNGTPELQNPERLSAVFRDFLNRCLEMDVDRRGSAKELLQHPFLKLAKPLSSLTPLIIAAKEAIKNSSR
Chain of CDK5/p35NCK (Q00535 whole entry): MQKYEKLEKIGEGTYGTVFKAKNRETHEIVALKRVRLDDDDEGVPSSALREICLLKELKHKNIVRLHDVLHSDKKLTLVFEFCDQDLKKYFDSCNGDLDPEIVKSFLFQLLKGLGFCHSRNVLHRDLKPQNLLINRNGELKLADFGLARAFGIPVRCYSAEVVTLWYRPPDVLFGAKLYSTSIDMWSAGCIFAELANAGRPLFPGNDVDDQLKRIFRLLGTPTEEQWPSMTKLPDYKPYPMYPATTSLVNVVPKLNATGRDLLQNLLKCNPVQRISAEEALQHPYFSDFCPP
Chain of CDK5/p35NCK (Q15078 whole entry partner): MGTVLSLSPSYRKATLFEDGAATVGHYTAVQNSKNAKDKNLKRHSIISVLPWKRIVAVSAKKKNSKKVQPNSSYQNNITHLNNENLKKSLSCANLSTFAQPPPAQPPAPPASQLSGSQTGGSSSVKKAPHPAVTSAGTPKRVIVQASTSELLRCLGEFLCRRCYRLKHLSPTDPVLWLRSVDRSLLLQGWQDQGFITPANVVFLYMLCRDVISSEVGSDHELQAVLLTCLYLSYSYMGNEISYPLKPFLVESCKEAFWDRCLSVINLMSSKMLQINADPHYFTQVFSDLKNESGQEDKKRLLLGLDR
Chain of MST2 (Q13188 whole entry): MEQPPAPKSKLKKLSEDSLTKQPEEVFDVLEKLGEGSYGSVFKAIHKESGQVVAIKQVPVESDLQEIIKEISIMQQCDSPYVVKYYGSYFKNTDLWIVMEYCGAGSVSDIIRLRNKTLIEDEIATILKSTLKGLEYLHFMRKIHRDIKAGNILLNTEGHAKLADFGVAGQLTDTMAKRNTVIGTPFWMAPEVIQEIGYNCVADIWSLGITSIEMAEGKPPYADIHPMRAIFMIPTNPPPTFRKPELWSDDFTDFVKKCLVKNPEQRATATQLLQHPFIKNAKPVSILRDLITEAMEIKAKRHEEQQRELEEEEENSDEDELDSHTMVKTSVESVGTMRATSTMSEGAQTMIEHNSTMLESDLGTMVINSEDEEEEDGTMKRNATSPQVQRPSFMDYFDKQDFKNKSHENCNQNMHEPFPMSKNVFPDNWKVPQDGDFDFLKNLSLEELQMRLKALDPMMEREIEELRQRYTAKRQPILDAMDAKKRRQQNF
Chain of SGK (O00141 whole entry): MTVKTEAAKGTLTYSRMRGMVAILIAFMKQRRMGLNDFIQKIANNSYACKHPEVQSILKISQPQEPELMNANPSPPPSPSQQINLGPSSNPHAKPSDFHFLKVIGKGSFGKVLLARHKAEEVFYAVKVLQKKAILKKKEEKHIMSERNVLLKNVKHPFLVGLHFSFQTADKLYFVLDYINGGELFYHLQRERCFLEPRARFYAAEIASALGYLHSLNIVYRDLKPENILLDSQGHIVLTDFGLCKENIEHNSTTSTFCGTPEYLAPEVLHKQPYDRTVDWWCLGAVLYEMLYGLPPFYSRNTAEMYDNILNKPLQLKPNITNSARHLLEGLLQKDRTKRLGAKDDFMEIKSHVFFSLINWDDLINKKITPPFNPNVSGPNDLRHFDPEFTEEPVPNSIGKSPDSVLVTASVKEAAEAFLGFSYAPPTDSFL
Chain of p38β (Q15759 whole entry): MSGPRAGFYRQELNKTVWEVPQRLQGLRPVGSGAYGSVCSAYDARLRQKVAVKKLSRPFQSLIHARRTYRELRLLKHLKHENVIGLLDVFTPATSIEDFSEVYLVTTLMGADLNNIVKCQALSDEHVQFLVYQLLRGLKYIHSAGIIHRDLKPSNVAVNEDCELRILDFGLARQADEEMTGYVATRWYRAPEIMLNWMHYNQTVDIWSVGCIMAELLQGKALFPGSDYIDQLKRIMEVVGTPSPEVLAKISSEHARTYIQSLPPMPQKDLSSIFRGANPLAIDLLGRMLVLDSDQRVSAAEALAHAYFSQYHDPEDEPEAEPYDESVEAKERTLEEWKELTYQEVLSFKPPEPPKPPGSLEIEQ

C=CC(=O)Nc1ccccc1Nc1ncc2c(n1)N(CCCN1CCN(C(=O)C=C)CC1)C(=O)N(c1cc(OC)cc(OC)c1)C2 [CXF-009] was tested, and the IC50 (Hep3B) was 895 nM, the inhibition at 1 µM (DYRK4) was 1.84% and the inhibition at 1 µM (IKK-beta) was 19%. The inhibition at 1 µM (DCAMKL2) was 18.9%, the inhibition at 1 µM (SYK) was 13.6% and the inhibition at 1 µM (FGFR3) was 11.1%. It also gave an inhibition at 1 µM (BMX) of 10.5%, an inhibition at 1 µM (SRM) of 5.29% and an inhibition at 1 µM (ROCK1) of 5.09%. The inhibition at 1 µM (ACK) was 4.18%, the inhibition at 1 µM (SGK) was 2.9% and the inhibition at 1 µM (EPHA7) was 2.74%. For the same molecule, the inhibition at 1 µM (HGK) was 2.58%, the inhibition at 1 µM (p38β) was 2.25% and the inhibition at 1 µM (PYK2) was 2.11%. It also gave an inhibition at 1 µM (PAK3) of 0.97%, an inhibition at 1 µM (CLK3) of -0.52% and an inhibition at 1 µM (CDK5/p35NCK) of -0.87%. For the same molecule, the inhibition at 1 µM (MAP3K3) was -1.62%, the inhibition at 1 µM (LCK) was -3.46% and the inhibition at 1 µM (IRR) was -3.5%. It also gave an inhibition at 1 µM (CDK3/CycE1) of -7.17%, an inhibition at 1 µM (YES) of -7.61% and an inhibition at 1 µM (MST2) of -8.12%. For the same molecule, the inhibition at 1 µM (TGFβR2) was -10.4% and the inhibition at 1 µM (PIK3CD/PIK3R1) was -44.4%.
